System: G-401 tumor spheroids, viability % test/control
Assay: Anticancer human tumor G-401 cell line growth inhibition;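 further: spheroids exposed to compound for 7 days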;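 on viability, T/C: 100% = DMSO vehicle-treated spheroids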
Settings: spheroids with HUVEC and MSC; for IC50: curve of first compound; for viability, T/C: stronger effect = lower value
Procedure, shortened: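 Complex spheroids of malignant cells with endothelial cells and mesenchymal stem cells; agents alone or combined, from near clinical Cmax (or 10 microM if unknown) down in half-log steps, 0.25% DMSO final.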

[1] = second compound 30 pM, first compound 0.0316 µM
[2] = second compound 30 pM, first compound 0.1 µM
[3] = second compound 30 pM, first compound 0.316 µM
[4] = second compound 30 pM, first compound 1 µM
[5] = second compound 30 pM, first compound 3.16 µM
[6] = second compound 30 pM, first compound 10 µM
[7] = second compound 94.9 pM, first compound 0.0316 µM
[8] = second compound 94.9 pM, first compound 0.1 µM
[9] = second compound 94.9 pM, first compound 0.316 µM
[10] = second compound 94.9 pM, first compound 1 µM
[11] = second compound 94.9 pM, first compound 3.16 µM
[12] = second compound 94.9 pM, first compound 10 µM
[13] = second compound 0.0003 µM, first compound 0.0316 µM
[14] = second compound 0.0003 µM, first compound 0.1 µM
[15] = second compound 0.0003 µM, first compound 0.316 µM
[16] = second compound 0.0003 µM, first compound 1 µM
[17] = second compound 0.0003 µM, first compound 3.16 µM
[18] = second compound 0.0003 µM, first compound 10 µM
[19] = second compound 0.000949 µM, first compound 0.0316 µM
[20] = second compound 0.000949 µM, first compound 0.1 µM
[21] = second compound 0.000949 µM, first compound 0.316 µM
[22] = second compound 0.000949 µM, first compound 1 µM
[23] = second compound 0.000949 µM, first compound 3.16 µM
[24] = second compound 0.000949 µM, first compound 10 µM
[25] = second compound 0.003 µM, first compound 0.0316 µM
[26] = second compound 0.003 µM, first compound 0.1 µM
[27] = second compound 0.003 µM, first compound 0.316 µM
[28] = second compound 0.003 µM, first compound 1 µM
[29] = second compound 0.003 µM, first compound 3.16 µM
[30] = second compound 0.003 µM, first compound 10 µM

Compound	IC50 (second compound 30 pM) [nM]	IC50 (second compound 94.9 pM) [nM]	IC50 (second compound 0.0003 µM) [nM]	IC50 (second compound 0.000949 µM) [nM]	IC50 (second compound 0.003 µM) [nM]	viability, T/C [1] [%]	viability, T/C [2] [%]	viability, T/C [3] [%]	viability, T/C [4] [%]	viability, T/C [5] [%]	viability, T/C [6] [%]	viability, T/C [7] [%]	viability, T/C [8] [%]	viability, T/C [9] [%]	viability, T/C [10] [%]	viability, T/C [11] [%]	viability, T/C [12] [%]	viability, T/C [13] [%]	viability, T/C [14] [%]	viability, T/C [15] [%]	also measured
CC(C)n1c(=O)n(C)c2cnc3cc(F)c(-c4ccc(OCCCN5CCCCC5)nc4)cc3c21 + COc1cc2c(cc1O)CCNC21CSC2c3c(OC(C)=O)c(C)c4c(c3C(COC1=O)N1C(O)C3Cc5cc(C)c(OC)c(O)c5C(C21)N3C)OCO4	< 31.6	< 31.6	< 31.6	< 31.6	< 31.6	43.6	35.7	35	46.2	36.9	19	19.1	17.3	18.1	21.6	23.9	23	15.6	12.8	16.4	viability, T/C [16]: 19.7%; viability, T/C [17]: 18.4%; viability, T/C [18]: 17.9%; viability, T/C [19]: 7.44%; viability, T/C [20]: 7.47%; viability, T/C [21]: 7.71%; viability, T/C [22]: 11.5%; viability, T/C [23]: 12.2%; viability, T/C [24]: 10.6%; viability, T/C [25]: 0.13%; viability, T/C [26]: 0.16%; viability, T/C [27]: 0.15%; viability, T/C [28]: 0.36%; viability, T/C [29]: 0.4%; viability, T/C [30]: 0.44%
CC1COCCN1c1cc(-c2ccnn2C)c2ccnc(-c3ccn[nH]3)c2n1 (stereo not given) + COc1cc2c(cc1O)CCNC21CSC2c3c(OC(C)=O)c(C)c4c(c3C(COC1=O)N1C(O)C3Cc5cc(C)c(OC)c(O)c5C(C21)N3C)OCO4	39.6	< 31.6	< 31.6	< 31.6	< 31.6	57.3	22.1	12.5	12.3	14.6	16.3	32	16.9	10.8	11.2	12.9	15.8	13.1	10.8	9.87	viability, T/C [16]: 9.44%; viability, T/C [17]: 11%; viability, T/C [18]: 14%; viability, T/C [19]: 7.87%; viability, T/C [20]: 7.07%; viability, T/C [21]: 6.97%; viability, T/C [22]: 4.82%; viability, T/C [23]: 3.79%; viability, T/C [24]: 1.07%; viability, T/C [25]: 0.15%; viability, T/C [26]: 0.14%; viability, T/C [27]: 0.12%; viability, T/C [28]: 0.11%; viability, T/C [29]: 0.11%; viability, T/C [30]: 0.17%
COc1cc(C)[nH]c(=O)c1CN1CCc2c(Cl)cc(C(OC)C3COC3)c(Cl)c2C1=O (stereo not given) + COc1cc2c(cc1O)CCNC21CSC2c3c(OC(C)=O)c(C)c4c(c3C(COC1=O)N1C(O)C3Cc5cc(C)c(OC)c(O)c5C(C21)N3C)OCO4	106	87	< 31.6	< 31.6	< 31.6	83.1	50.9	33.9	28.1	26.9	26.1	74.1	44.6	36.1	27.3	22.7	22.8	33.1	30.2	23	viability, T/C [16]: 20.4%; viability, T/C [17]: 18.4%; viability, T/C [18]: 18.1%; viability, T/C [19]: 4.72%; viability, T/C [20]: 5.11%; viability, T/C [21]: 3.78%; viability, T/C [22]: 4%; viability, T/C [23]: 5.07%; viability, T/C [24]: 3.13%; viability, T/C [25]: 0.12%; viability, T/C [26]: 0.12%; viability, T/C [27]: 0.11%; viability, T/C [28]: 0.11%; viability, T/C [29]: 0.11%; viability, T/C [30]: 0.18%
COc1ccc([C@@H](O)c2cc(-c3ncnc4cc(N5CCOCC5)ccc34)c(F)cc2Cl)nn1 + COc1cc2c(cc1O)CCNC21CSC2c3c(OC(C)=O)c(C)c4c(c3C(COC1=O)N1C(O)C3Cc5cc(C)c(OC)c(O)c5C(C21)N3C)OCO4	1000	493	< 31.6	< 31.6	< 31.6	93.1	99.2	87.4	50	16.5	9.53	83.8	83.1	63.6	27.7	9.96	5.51	40	29.8	18.6	viability, T/C [16]: 8.98%; viability, T/C [17]: 3.1%; viability, T/C [18]: 0.75%; viability, T/C [19]: 5.15%; viability, T/C [20]: 5.57%; viability, T/C [21]: 2.21%; viability, T/C [22]: 0.51%; viability, T/C [23]: 0.05%; viability, T/C [24]: 0.16%; viability, T/C [25]: 0.22%; viability, T/C [26]: 0.25%; viability, T/C [27]: 0.21%; viability, T/C [28]: 0.21%; viability, T/C [29]: 0.16%; viability, T/C [30]: 0.25%
Cc1cc(C)c(CNC(=O)c2cc(-c3ccc(CN4CCOCC4)cc3)cc3c2cnn3C2CCCC2)c(=O)[nH]1 + COc1cc2c(cc1O)CCNC21CSC2c3c(OC(C)=O)c(C)c4c(c3C(COC1=O)N1C(O)C3Cc5cc(C)c(OC)c(O)c5C(C21)N3C)OCO4	> 10000	7070	< 31.6	< 31.6	< 31.6	107	109	111	119	97.7	53.9	93.3	110	106	107	81	36.6	43.3	46.5	37.9	viability, T/C [16]: 30%; viability, T/C [17]: 25.2%; viability, T/C [18]: 17.4%; viability, T/C [19]: 9.71%; viability, T/C [20]: 9.04%; viability, T/C [21]: 6.87%; viability, T/C [22]: 6.92%; viability, T/C [23]: 6.27%; viability, T/C [24]: 4.18%; viability, T/C [25]: 11.6%; viability, T/C [26]: 0.13%; viability, T/C [27]: 0.27%; viability, T/C [28]: 0.15%; viability, T/C [29]: 0.54%; viability, T/C [30]: 0.2%
[2H]c1nc(C)nc([2H])c1-c1cc(NC[C@@H](C)c2cccc3c(C(=O)NC)ccnc23)ncn1 + COc1cc2c(cc1O)CCNC21CSC2c3c(OC(C)=O)c(C)c4c(c3C(COC1=O)N1C(O)C3Cc5cc(C)c(OC)c(O)c5C(C21)N3C)OCO4	> 10000	> 10000	< 31.6	< 31.6	< 31.6	103	103	106	105	98.6	106	88.6	87.5	93	93.1	93.9	91.4	36.1	39.9	40	viability, T/C [16]: 42.6%; viability, T/C [17]: 31.8%; viability, T/C [18]: 37.4%; viability, T/C [19]: 7.05%; viability, T/C [20]: 5.74%; viability, T/C [21]: 8.4%; viability, T/C [22]: 8.02%; viability, T/C [23]: 6.93%; viability, T/C [24]: 3.48%; viability, T/C [25]: 0.16%; viability, T/C [26]: 0.17%; viability, T/C [27]: 0.14%; viability, T/C [28]: 0.13%; viability, T/C [29]: 0.14%; viability, T/C [30]: 0.22%

Source: PubChem BioAssay AID1845203 (Molecular Pharmacology Branch, DTP, NCI, 2023)
